From PubChem BioAssay (NCI)
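96-well plates; 48 h exposure; 5 concentrations. Endpoints by linear interpolation between flanking doses. Not reached: highest tested concentration assigned. At the GI50, growth is halved. At the TGI there is no net growth.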

System: SN12K1 renal
Assay: NCI tumour cell line growth inhibition, 48 h

C=C1C(=O)OC2C1CC1OC2C(C)CCC/C(C)=C\CCC1(C)O (centres undefined)
TGI: 40.2 µM

O.O=[Se](=O)(O)O.[NH-]C1CCCCC1[NH-].[Pt+2] (centres undefined)
GI50: > 30.4 µM
TGI: > 100 µM

COc1cccc2c1C(=O)c1c(O)c3c(c(O)c1C2=O)C[C@](O)(C(=O)CO)CC3OC1CC(N)C(OC2CCCCO2)C(C)O1 (some centres undefined)
TGI: 0.879 µM
